# The supplement of paper PMC10307832
# How the values were obtained:
# Test in all cases: relative viability (nuclei count vs DMSO), 5 days (fraction); higher = more cells survive
# BAM7 + Dasatinib = compound: CCOC1=CC=CC=C1N=NC2=C(NN(C2=O)C3=NC(=CS3)C4=CC=CC=C4)C [BAM7] + Cc1nc(Nc2ncc(C(=O)Nc3c(C)cccc3Cl)s2)cc(N2CCN(CCO)CC2)n1 [Dasatinib] (partner 0.075 µM)
# Summary of the method: (§1)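 Each reported value is a median over duplicate plates. It expresses relative viability: treated-well nuclei count divided by vehicle-well nuclei count. Lung cancer cell lines in 1536-well plates were dosed by pin tool a day after seeding, alone with one drug or with a fixed anchor-drug dose plus five library-drug doses (not always all listed) in √10 steps, and nuclei were counted after 5 days.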
# [1] = compound: CCn1c(-c2nonc2N)nc2c(C#CC(C)(C)O)ncc(OC[C@H]3CCCNC3)c21 + COc1cc2c(Oc3ccc(NC(=O)C4(C(=O)Nc5ccc(F)cc5)CC4)cc3F)ccnc2cc1OCCCN1CCOCC1 [Foretinib] (partner 0.25 µM)
# Summary of the method: as §1
# [2] = compound: CCn1c(-c2nonc2N)nc2c(C#CC(C)(C)O)ncc(OC[C@H]3CCCNC3)c21 + CC(=O)Nc1cccc(-n2c(=O)n(C3CC3)c(=O)c3c(Nc4ccc(I)cc4F)n(C)c(=O)c(C)c32)c1 [Trametinib] (partner 0.02 µM)
# Summary of the method: as §1
# BAM7 + Bortezomib = compound: CCOC1=CC=CC=C1N=NC2=C(NN(C2=O)C3=NC(=CS3)C4=CC=CC=C4)C [BAM7] + CC(C)C[C@H](NC(=O)[C@H](Cc1ccccc1)NC(=O)c1cnccn1)B(O)O [Bortezomib] (partner 0.002 µM)
# Summary of the method: as §1
Cell Line,relative viability (BAM7 + Dasatinib; first compound 0.5 µM),relative viability (BAM7 + Dasatinib; first compound 5 µM),relative viability (BAM7 + Dasatinib; first compound 15.81 µM),relative viability (BAM7 + Dasatinib; first compound 50 µM),relative viability ([1]; first compound 0.01 µM),relative viability ([1]; first compound 0.03162 µM),relative viability ([1]; first compound 0.1 µM),relative viability ([1]; first compound 0.3162 µM),relative viability ([1]; first compound 1 µM),relative viability ([2]; first compound 0.01 µM),relative viability ([2]; first compound 0.03162 µM),relative viability ([2]; first compound 0.1 µM),relative viability ([2]; first compound 0.3162 µM),relative viability ([2]; first compound 1 µM),relative viability (BAM7 + Bortezomib; first compound 0.5 µM),relative viability (BAM7 + Bortezomib; first compound 5 µM),relative viability (BAM7 + Bortezomib; first compound 15.81 µM),relative viability (BAM7 + Bortezomib; first compound 50 µM)
NCI-H1437,0.561,0.574,0.445,0.833,1.18,1.27,1.28,1.27,1.36,0.483,0.508,0.612,0.515,0.535,0.537,0.412,0.395,0.551
LU99A,0.661,0.642,0.577,0.476,0.797,0.797,0.814,0.776,0.899,0.517,0.611,0.6,0.524,0.525,1.21,1.22,1.34,1.15
HCC-827,0.29,0.234,0.313,0.264,1.02,1.09,1.01,1.06,1.02,0.532,0.5,0.546,0.504,0.462,1.1,1.17,1.05,0.917
HCC-366,0.67,0.675,0.708,0.717,0.931,0.99,0.975,0.907,0.965,0.391,0.312,0.364,0.334,0.293,1.09,1.11,1.08,1.08
BEN,0.351,0.351,0.323,0.42,0.615,0.467,0.7,0.686,0.683,0.973,1.25,0.986,1.03,1.12,0.823,0.825,1.02,0.976
NCI-H23,0.892,0.813,0.732,0.868,0.971,1.15,1.06,0.918,0.916,0.373,0.378,0.433,0.369,0.357,1.23,1.05,0.933,1.12
201T,0.659,0.56,0.461,0.497,1.14,–,1.14,1.09,0.995,0.707,0.705,0.763,0.722,0.749,1.05,1.13,0.925,0.987
NCI-H460,0.51,0.622,0.443,0.691,0.949,1.11,0.979,0.978,1.11,0.171,0.121,0.145,0.0808,0.105,1.38,1.1,1.04,1.01
NCI-H661,0.991,0.965,0.759,0.962,1.01,1.06,1.06,0.935,1.06,0.52,0.615,0.521,0.491,0.569,0.807,0.738,0.656,0.827
HCC-15,0.594,0.574,0.617,0.565,0.995,1.04,1.05,0.903,0.92,0.358,0.352,0.385,0.39,0.354,1.02,1.06,1,0.934
LCLC-103H,0.46,0.512,0.523,0.523,0.792,0.981,0.749,0.736,0.847,0.615,0.686,0.66,0.642,0.675,1.15,1.1,1.1,1.18
NCI-H441,0.607,0.583,0.71,0.724,1.08,0.967,0.836,1.16,0.875,0.435,0.39,0.452,0.397,0.378,0.48,0.453,0.464,0.447
EPLC-272H,0.369,–,0.346,0.434,0.657,0.711,0.675,0.632,0.738,0.324,0.284,0.252,0.217,0.315,0.893,0.969,0.827,0.942
